How the values were obtained:
[1] = test system: giant foxtail; test: Test B pre/postemergence giant foxtail; assay type: in vivo, Setaria faberii
Method in brief: (§1)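 Herbicidal effect was estimated by eye on a ten-point control scale after plants spent twelve to sixteen days in a greenhouse following soil or foliar treatment. Foliar sprays targeted plants at one to four leaves; all doses were formulated in a non-phytotoxic solvent with surfactant.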

[2] = test system: crabgrass; test: Test B pre/postemergence crabgrass; assay type: in vivo, Digitaria sanguinalis
Method in brief: as §1

[3] = test system: wild oat; test: Test B pre/postemergence wild oat; assay type: in vivo, Avena fatua
Method in brief: as §1

[4] = test system: pigweed; test: Test B pre/postemergence pigweed; assay type: in vivo, Amaranthus retroflexus
Method in brief: as §1

[5] = test system: rape; test: Test B pre/postemergence rape; assay type: in vivo, Brassica napus
Method in brief: as §1

[6] = test system: velvetleaf; test: Test B pre/postemergence velvetleaf; assay type: in vivo, Abutilon theophrasti
Method in brief: as §1

[7] = test system: duck salad; test: Test B flood test duck salad; assay type: in vivo, Heteranthera limosa
Method in brief: (§2)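 Flood test on plants grown to the 2-leaf stage; treated plants kept in greenhouse twelve to sixteen days, then visually rated against controls on a 0 (no effect) to 10 (complete control) scale.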

[8] = test system: morningglory; test: Test B pre/postemergence morningglory; assay type: in vivo, Ipomoea hederacea
Method in brief: as §1

[9] = test system: corn; test: Test B pre/postemergence corn; assay type: in vivo, Zea mays
Method in brief: as §1

[10] = test system: purple nutsedge; test: Test B pre/postemergence purple nutsedge; assay type: in vivo, Cyperus rotundus
Method in brief: as §1

[11] = test system: soybean; test: Test B pre/postemergence soybean; assay type: in vivo, Glycine max
Method in brief: as §1

[12] = test system: sugar beet; test: Test B pre/postemergence sugar beet; assay type: in vivo, Beta vulgaris
Method in brief: as §1

[13] = test system: cocklebur; test: Test B pre/postemergence cocklebur; assay type: in vivo, Xanthium strumarium
Method in brief: as §1

[14] = test system: bamyardgrass; test: Test B flood test barnyardgrass; assay type: in vivo, Echinochloa crus-galli
Method in brief: as §2

[15] = test system: wheat; test: Test B pre/postemergence wheat; assay type: in vivo, Triticum aestivum
Method in brief: as §1

[16] = test system: rice; test: Test B flood test rice; assay type: in vivo, Oryza sativa
Method in brief: as §2

[17] = Postemergence, Rate 125 g/ha, scale 0 to 10, 0 is no effect, 10 is complete control
[18] = Preemergence, Rate 62 g/ha, scale of 0 to 10 where 0 is no effect and 10 is complete control
[19] = Preemergence, Rate 250 g/ha, scale of 0 to 10 where 0 is no effect and 10 is complete control
[20] = Preemergence, Rate 500 g/ha, scale of 0 to 10 where 0 is no effect and 10 is complete control
[21] = Rate 62 g/ha, Postemergence, scale 0 to 10 (0 no effect, 10 complete control)
[22] = Rate 250 g/ha, Postemergence, scale of 0 to 10 where 0 is no effect and 10 is complete control
[23] = Rate 500 g/ha, Postemergence, scale 0 to 10, 0 no effect, 10 complete control
[24] = Rate 62 g/ha, headed Pre-emergence (flood test species), scale 0 to 10 (0 no effect, 10 complete control)
[25] = Rate 125 g/ha, Pre-emergence, flood test species, scale 0 to 10 where 0 is no effect and 10 is complete control
[26] = Rate 250 g/ha, Pre-emergence, flood-test species, scale 0 to 10, 0 is no effect, 10 is complete control
[27] = Rate 500 g/ha, Pre-emergence, flood test species, scale 0 to 10 (0 no effect, 10 complete control)

CC(C)N(C(=O)n1oc(=O)n(C2CC3CCC2C3)c1=O)c1ccc(F)cc1F (stereo not drawn) [Compound 326]
Plant response rating, Giant foxtail [1, 17]: 0 | Giant foxtail plant response rating [1, 18]: 0 | Giant foxtail plant response rating (0 to 10 scale) ([1]; Preemergence, Rate 125 g/ha): 2 | Giant foxtail plant response rating [1, 19]: 8 | Giant foxtail plant response rating [1, 20]: 9 | Giant foxtail plant response rating [1, 21]: 0 | Plant response rating, Giant foxtail [1, 22]: 0 | Plant response rating, Giant foxtail [1, 23]: 2 | Plant response rating, Crabgrass [2, 17]: 0 | Crabgrass plant response rating [2, 18]: 0 | Crabgrass plant response rating (0 to 10 scale) ([2]; Preemergence, Rate 125 g/ha): 0 | Crabgrass plant response rating [2, 19]: 3 | Crabgrass plant response rating [2, 20]: 5 | Crabgrass plant response rating [2, 21]: 0 | Plant response rating, Crabgrass [2, 22]: 1 | Plant response rating, Crabgrass [2, 23]: 3 | Plant response rating, Wild oats [3, 17]: 0 | Wild oats plant response rating [3, 18]: 0 | Wild oats plant response rating (0 to 10 scale) ([3]; Preemergence, Rate 125 g/ha): 1 | Wild oats plant response rating [3, 19]: 3 | Wild oats plant response rating [3, 20]: 3 | Wild oats plant response rating [3, 21]: 0 | Plant response rating, Wild oats [3, 22]: 0 | Plant response rating, Wild oats [3, 23]: 0 | Plant response rating, Redroot pigweed [4, 17]: 4 | Redroot pigweed plant response rating [4, 18]: 1 | Redroot pigweed plant response rating (0 to 10 scale) ([4]; Preemergence, Rate 125 g/ha): 3 | Redroot pigweed plant response rating [4, 19]: 6 | Redroot pigweed plant response rating [4, 20]: 7 | Redroot pigweed plant response rating [4, 21]: 3 | Plant response rating, Redroot pigweed [4, 22]: 4 | Plant response rating, Redroot pigweed [4, 23]: 7 | Plant response rating, Rape [5, 17]: 0 | Rape plant response rating [5, 18]: 0 | Rape plant response rating (0 to 10 scale) ([5]; Preemergence, Rate 125 g/ha): 0 | Rape plant response rating [5, 19]: 0 | Rape plant response rating [5, 20]: 1 | Rape plant response rating [5, 21]: 0 | Plant response rating, Rape [5, 22]: 1 | Plant response rating, Rape [5, 23]: 3 | Plant response rating, Velvetleaf [6, 17]: 0 | Velvetleaf plant response rating [6, 18]: 0 | Velvetleaf plant response rating (0 to 10 scale) ([6]; Preemergence, Rate 125 g/ha): 0 | Velvetleaf plant response rating [6, 19]: 0 | Velvetleaf plant response rating [6, 20]: 0 | Velvetleaf plant response rating [6, 21]: 0 | Plant response rating, Velvetleaf [6, 22]: 2 | Plant response rating, Velvetleaf [6, 23]: 2 | Ducksalad plant response rating [7, 24]: 0 | Ducksalad plant response rating [7, 25]: 0 | Ducksalad plant response rating [7, 26]: 0 | Ducksalad plant response rating [7, 27]: 0 | Plant response rating, Morningglory [8, 17]: 7 | Morningglory plant response rating [8, 18]: 0 | Morningglory plant response rating (0 to 10 scale) ([8]; Preemergence, Rate 125 g/ha): 0 | Morningglory plant response rating [8, 19]: 0 | Morningglory plant response rating [8, 20]: 0 | Morningglory plant response rating [8, 21]: 5 | Plant response rating, Morningglory [8, 23]: 10 | Plant response rating, Corn [9, 17]: 0 | Corn plant response rating [9, 18]: 0 | Corn plant response rating (0 to 10 scale) ([9]; Preemergence, Rate 125 g/ha): 0 | Corn plant response rating [9, 19]: 0 | Corn plant response rating [9, 20]: 2 | Corn plant response rating [9, 21]: 0 | Plant response rating, Corn [9, 22]: 0 | Plant response rating, Corn [9, 23]: 0 | Plant response rating, Nutsedge [10, 17]: 0 | Nutsedge plant response rating [10, 18]: 0 | Nutsedge plant response rating [10, 19]: 0 | Nutsedge plant response rating [10, 20]: 0 | Nutsedge plant response rating [10, 21]: 0 | Plant response rating, Nutsedge [10, 22]: 0 | Plant response rating, Nutsedge [10, 23]: 0 | Plant response rating, Soybean [11, 17]: 5 | Soybean plant response rating [11, 18]: 0 | Soybean plant response rating (0 to 10 scale) ([11]; Preemergence, Rate 125 g/ha): 0 | Soybean plant response rating [11, 19]: 0 | Soybean plant response rating [11, 20]: 0 | Soybean plant response rating [11, 21]: 3 | Plant response rating, Soybean [11, 22]: 5 | Plant response rating, Soybean [11, 23]: 6 | Plant response rating, Sugarbeets [12, 17]: 0 | Sugarbeets plant response rating [12, 18]: 0 | Sugarbeets plant response rating (0 to 10 scale) ([12]; Preemergence, Rate 125 g/ha): 0 | Sugarbeets plant response rating [12, 19]: 0 | Sugarbeets plant response rating [12, 20]: 2 | Sugarbeets plant response rating [12, 21]: 0 | Plant response rating, Sugarbeets [12, 22]: 0 | Plant response rating, Sugarbeets [12, 23]: 0 | Plant response rating, Cocklebur [13, 17]: 0 | Cocklebur plant response rating [13, 18]: 0 | Cocklebur plant response rating (0 to 10 scale) ([13]; Preemergence, Rate 125 g/ha): 0 | Cocklebur plant response rating [13, 19]: 0 | Cocklebur plant response rating [13, 20]: 0 | Cocklebur plant response rating [13, 21]: 0 | Plant response rating, Cocklebur [13, 22]: 0 | Plant response rating, Cocklebur [13, 23]: 2 | Barnyardgrass plant response rating [14, 24]: 0 | Barnyardgrass plant response rating [14, 25]: 0 | Barnyardgrass plant response rating [14, 26]: 8 | Barnyardgrass plant response rating [14, 27]: 9 | Plant response rating, Wheat [15, 17]: 0 | Wheat plant response rating [15, 18]: 0 | Wheat plant response rating (0 to 10 scale) ([15]; Preemergence, Rate 125 g/ha): 0 | Wheat plant response rating [15, 19]: 0 | Wheat plant response rating [15, 20]: 2 | Wheat plant response rating [15, 21]: 0 | Plant response rating, Wheat [15, 22]: 0 | Plant response rating, Wheat [15, 23]: 0 | Rice plant response rating [16, 24]: 0 | Rice plant response rating [16, 25]: 0 | Rice plant response rating [16, 26]: 0 | Rice plant response rating [16, 27]: 0
